Results from PubChem BioAssay (NCI).
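Protocol summary: plate cells (96-well), add compound at 5 concentrations, incubate 48 h, interpolate endpoints linearly. TGI denotes the concentration required for complete inhibition of growth.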 *1 amine or outer side, *2 acyl side, *3 side chain or, on linkers, in order; H or OH if unused. Where a SMILES comes first, the peptide text is derived from it. Bridges are numbered along the chain shown (N, C = ends). [ ]: non-standard residue; d: D form. The star is where a group is joined. ξ: configuration not given here. γ4hArg(2R,3R-(OH)2) = N=C(N)NCCC[C@H](N[*:1])[C@@H](O)[C@@H](O)C(=O)[*:2]; Gln(3S,4R-Me2) = C[C@H]([C@H](N)C(=O)O)[C@@H](C)C(N)=O; X43 = CC(C)C[C@H](C)[C@@H](O)[C@@H](C)C(=O)*; X44 = COC(c1ccc(O)cc1)C(N[*:1])C(=O)[*:2]; NMeQ = CN[C@@H](CCC(N)=O)C(=O)O; Thr(3ξ) = CC(O)[C@H](N)C(=O)O; NMeA = CN[C@@H](C)C(=O)O

How the values were obtained:
Assay in all cases: inhibition of tumour cell growth, NCI panel, 48 h
RXF 393 renal = system: RXF 393 renal
CCRF-CEM leukemia = system: CCRF-CEM leukemia
NCI-H460 lung = system: NCI-H460 lung
OVCAR-8 ovarian = system: OVCAR-8 ovarian
IGROV1 ovarian = system: IGROV1 ovarian
UO-31 renal = system: UO-31 renal
U251 CNS = system: U251 CNS
UACC-257 melanoma = system: UACC-257 melanoma
COLO 205 colon = system: COLO 205 colon
NCI-H522 lung = system: NCI-H522 lung
HCC-2998 colon = system: HCC-2998 colon
PC-3 prostate = system: PC-3 prostate
DU-145 prostate = system: DU-145 prostate
SW-620 colon = system: SW-620 colon
SK-MEL-2 melanoma = system: SK-MEL-2 melanoma
SNB-19 CNS = system: SNB-19 CNS
SK-MEL-5 melanoma = system: SK-MEL-5 melanoma
SN12C renal = system: SN12C renal
UACC-62 melanoma = system: UACC-62 melanoma
SNB-75 CNS = system: SNB-75 CNS
HCT-116 colon = system: HCT-116 colon
A549 NSCLC = system: A549 NSCLC
SF-295 CNS = system: SF-295 CNS
MOLT-4 leukemia = system: MOLT-4 leukemia
BT-549 breast = system: BT-549 breast
NCI/ADR-RES ovarian = system: NCI/ADR-RES ovarian
786-0 renal = system: 786-0 renal
OVCAR-4 ovarian = system: OVCAR-4 ovarian
T-47D breast = system: T-47D breast
RPMI-8226 leukemia = system: RPMI-8226 leukemia
LOX IMVI melanoma = system: LOX IMVI melanoma
OVCAR-5 ovarian = system: OVCAR-5 ovarian
ACHN renal = system: ACHN renal
A498 renal = system: A498 renal
MDA-MB-231 breast = system: MDA-MB-231 breast
HT29 colon = system: HT29 colon
CAKI-1 renal = system: CAKI-1 renal
HCT-15 colon = system: HCT-15 colon
MDA-MB-435 = system: MDA-MB-435
OVCAR-3 ovarian = system: OVCAR-3 ovarian
TK-10 renal = system: TK-10 renal
MCF7 breast = system: MCF7 breast
HOP-62 NSCLC = system: HOP-62 NSCLC
SK-OV-3 ovarian = system: SK-OV-3 ovarian
EKVX NSCLC = system: EKVX NSCLC
NCI-H226 lung = system: NCI-H226 lung
K-562 leukemia = system: K-562 leukemia
MALME-3M melanoma = system: MALME-3M melanoma
SF-268 CNS = system: SF-268 CNS
KM12 colon = system: KM12 colon
M14 melanoma = system: M14 melanoma
SR leukemia = system: SR leukemia
SK-MEL-28 melanoma = system: SK-MEL-28 melanoma
HS 578T breast = system: HS 578T breast
HOP-92 NSCLC = system: HOP-92 NSCLC
NCI-H23 lung = system: NCI-H23 lung

NC(=O)NNc1nc(-c2ccccc2)cs1
TGI (RXF 393 renal): > 100 µM | TGI (CCRF-CEM leukemia): > 100 µM | TGI (NCI-H460 lung): > 100 µM | TGI (OVCAR-8 ovarian): > 100 µM | TGI (IGROV1 ovarian): > 100 µM | TGI (UO-31 renal): > 100 µM | TGI (U251 CNS): > 100 µM | TGI (UACC-257 melanoma): > 100 µM | TGI (COLO 205 colon): > 100 µM | TGI (NCI-H522 lung): > 100 µM | TGI (HCC-2998 colon): > 100 µM | TGI (PC-3 prostate): > 100 µM | TGI (DU-145 prostate): > 100 µM | TGI (SW-620 colon): > 100 µM | TGI (SK-MEL-2 melanoma): > 100 µM | TGI (SNB-19 CNS): > 100 µM | TGI (SK-MEL-5 melanoma): > 100 µM | TGI (SN12C renal): > 100 µM | TGI (UACC-62 melanoma): > 100 µM | TGI (SNB-75 CNS): > 100 µM | TGI (HCT-116 colon): > 100 µM | TGI (A549 NSCLC): > 100 µM | TGI (SF-295 CNS): > 100 µM | TGI (MOLT-4 leukemia): > 100 µM | TGI (BT-549 breast): > 100 µM | TGI (NCI/ADR-RES ovarian): > 100 µM | TGI (786-0 renal): > 100 µM | TGI (OVCAR-4 ovarian): > 100 µM | TGI (T-47D breast): > 100 µM | TGI (RPMI-8226 leukemia): > 100 µM | TGI (LOX IMVI melanoma): > 100 µM | TGI (OVCAR-5 ovarian): > 100 µM | TGI (ACHN renal): > 100 µM | TGI (A498 renal): > 100 µM | TGI (MDA-MB-231 breast): > 100 µM | TGI (HT29 colon): > 100 µM | TGI (CAKI-1 renal): > 100 µM | TGI (HCT-15 colon): > 100 µM | TGI (MDA-MB-435): > 100 µM | TGI (OVCAR-3 ovarian): > 100 µM | TGI (TK-10 renal): > 100 µM | TGI (MCF7 breast): > 100 µM | TGI (HOP-62 NSCLC): > 100 µM | TGI (SK-OV-3 ovarian): > 100 µM | TGI (EKVX NSCLC): > 100 µM | TGI (NCI-H226 lung): > 100 µM | TGI (K-562 leukemia): > 100 µM | TGI (MALME-3M melanoma): > 100 µM | TGI (SF-268 CNS): > 100 µM | TGI (KM12 colon): > 100 µM | TGI (M14 melanoma): > 100 µM | TGI (SR leukemia): > 100 µM | TGI (SK-MEL-28 melanoma): > 100 µM | TGI (HS 578T breast): > 100 µM

COC(c1ccc(O)cc1)C1NC(=O)[C@H](CCC(N)=O)N(C)C(=O)[C@H](CC(C)C)NC(=O)[C@@H](CCCN=C(N)N)NC(=O)[C@H](C(C)O)NC(=O)[C@@H](NC(=O)[C@@H](NC(=O)[C@H](O)[C@H](O)[C@H](CCCN=C(N)N)NC(=O)[C@H](C)NC(=O)[C@H](C)[C@H](O)[C@@H](C)CC(C)C)[C@@H](C)[C@@H](C)C(N)=O)[C@@H](C)OC(=O)[C@H](C)N(C)C1=O (stereo partly drawn) (X43-A[γ4hArg(2R,3R-(OH)2)][Gln(3S,4R-Me2)]T[Thr(3ξ)][dR]L[NMeQ][X44][NMeA]; ester 4-C)
TGI (UACC-257 melanoma): 0.308 µM | TGI (HOP-92 NSCLC): 0.614 µM | TGI (BT-549 breast): 0.737 µM | TGI (NCI-H23 lung): 0.201 µM | TGI (NCI-H226 lung): 0.912 µM
